Results taken from patent publication EP0071535B1, “(4-(2 and/or 3-Thienylacetamido)-phenoxy)-hydroxyaminopropanes, their preparation, their therapeutic use and intermediates” (CARPIBEM (CENTRE D'ACTIVITE ET DE RECHERCHE PHARMACEUTIQUE …, priority 1981, dated 1983).

Assays:
[1] = tested on: effets β2 (diminution de la pression artérielle diastolique) de l'isoprénaline; test: β-blocking activity: inhibition of the β2 effects of intravenous isoprenaline in anaesthetised dogs; type: in vivo, chiens; details: dog; for inhibition at 0.001 mg/kg / inhibition at 0.003 mg/kg / inhibition at 0.01 mg/kg / inhibition at 0.1 mg/kg: Canis lupus familiaris, iv, inhibition given with negative sign, read-out: % d'inhibition des effets β2^⊕ de l'Isoprénaline; for inhibition at 0.001 mg/kg: 0,001 mg/kg I.V.; for inhibition at 0.003 mg/kg: 0,003 mg/kg I.V.; for inhibition at 0.01 mg/kg: 0,010 mg/kg I.V.; for inhibition at 0.1 mg/kg: 0,100 mg/kg I.V.
Experimental: (§1) Des chiens tout-venants mâles ou femelles sont anesthésiés au mébubarbital sodique (30 mg/kg I.V.) et ventilés artificiellement par une pompe Pesty RPP. Ils sont supplémentés en oxygène.
(§2) On mesure: • - la pression carotidienne systolique et diastolique • - la force contractile du myocarde.
(§3) Les signaux sont amplifiés et enregistrés sur Dynograph Beckman.
(§4) L'activité β bloquante adrénergique a été étudiée vis-à-vis des effets β1 (augmentation de la force contractile du myocarde) et des effets P2 (diminution de la pression artérielle disstolique) de l'isoprénaline administrée par voie intraveineuse.
(§5) On calcule le pourcentsge d'inhibition des effets β1 et des effets β2 de l'isoprénaline en fonction des doses (mg.kg I.V.) des différents exemples.
(§6) Les exemples sont injectés dans le veine saphène aux doses (exprimées en base) de: 0,0003 0,001 0,003 0,01 0,1 1,0 et 4,0 ou 8,0 mg.kg-1.

[2] = tested on: rat génétiquement hypertendu: Rat OKAMOTO; test: Antihypertensive activity in spontaneously hypertensive rats (tail-cuff systolic pressure and heart rate after oral dosing); type: in vivo
Experimental: Des rats mâles âgés de 13 à 21 semaines présentant une hypertension spontanée génétiquement transmissible (souche OKAMOTO provenance IFFA CREDO) sont placés dans une enceinte thermostatée à 38°C. Les rats sont laissés en situation libre. La pression artérielle est mesurée par un sphygmomanomètre Narco Biosystem. Un manchon est placé à la base de la queue et un détecteur enregistre le pouls en aval du manchon. Celui-ci est gonflé jusqu'à suppression du pouls il est ensuite progressivement dégonflé. La pression mesurée à la reprise des battements cardiaques est la pression artérielle systolique. On calcule la fréquence cardiaque à partir de l'enregistrement du pouls artériel. Les produits à étudiar sont mis en suspension el administrés par voie orale sous un volume de 1 ml pour 100 g de poids corporel. Les mesures sont répétées à intervalles réguliers.
Les valeurs moyennes avant traitement pour les différents lots de rats sont pour la pression artérielle systolique de 190 à 200 mmHg et pour la fréquence cardiaque de 305 à 350 battements par minute.
Le tableau III ci-après donne la moyenne des variations de la pression systolique (mmHg) de la fréquence cardisque (battements/minute) et les écarts type à la moyenne obtenus 1 heure 3 heures et 5 heures après administration orale.

[3] = tested on: effets β1 (augmentation de la force contractile du myocarde) de l'isoprénaline; test: β-blocking activity: inhibition of the β1 effects of intravenous isoprenaline in anaesthetised dogs; type: in vivo, chiens; details: dog; for inhibition at 0.001 mg/kg / inhibition at 0.003 mg/kg / inhibition at 0.01 mg/kg / inhibition at 0.1 mg/kg: Canis lupus familiaris, iv, inhibition given with negative sign, read-out: % d'inhibition des effets β1^(+) de l'Isoprénaline; for inhibition at 0.001 mg/kg: 0,001 mg/kg I.V.; for inhibition at 0.003 mg/kg: 0,003 mg/kg I.V.; for inhibition at 0.01 mg/kg: 0,010 mg/kg I.V.; for inhibition at 0.1 mg/kg: 0,100 mg/kg I.V.
Experimental: as §1, §2, §3, §4, §5, §6

[4] = 0.003 mg.kg^-1 voie intraveineuse
[5] = 0.01 mg.kg^-1 voie intraveineuse
[6] = 0.1 mg.kg^-1 voie intraveineuse
[7] = 1.0 mg.kg^-1 voie intraveineuse
[8] = 8.0 mg.kg^-1 voie intraveineuse
[9] = 128 mg.kg^-1 V.O, T+5 heures, mean
[10] = 0.001 mg.kg^-1 voie intraveineuse
[11] = 4.0 mg.kg^-1 voie intraveineuse

Row | SMILES | Pourcentages d'inhibition des effets β2 de l'Isoprénaline [1, 5] [%] | Pourcentages d'inhibition des effets β2 de l'Isoprénaline [1, 6] [%] | Pourcentages d'inhibition des effets β2 de l'Isoprénaline [1, 7] [%] | Pourcentages d'inhibition des effets β2 de l'Isoprénaline [1, 8] [%] | inhibition at 0.001 mg/kg [1] [%] | inhibition at 0.003 mg/kg [1] [%] | inhibition at 0.01 mg/kg [1] [%] | inhibition at 0.1 mg/kg [1] [%] | Fréquence cardiaque Δ (battements/min) T+1 heure m (sm) ([2]; 128 mg.kg^-1 V.O) | Pression systolique Δ (mmHg) T+1 heure m (sm) ([2]; 128 mg.kg^-1 V.O) | Pression systolique Δ (mmHg) T+1 heure m ([2]; 128 mg.kg^-1 V.O, mean) [mmHg] | Pourcentages d'inhibition des effets β1 de l'Isoprénaline [3, 10] [%] | Pourcentages d'inhibition des effets β1 de l'Isoprénaline [3, 4] [%] | Pourcentages d'inhibition des effets β1 de l'Isoprénaline [3, 5] [%] | Pourcentages d'inhibition des effets β1 de l'Isoprénaline [3, 6] [%] | Pourcentages d'inhibition des effets β1 de l'Isoprénaline [3, 7] [%] | inhibition at 0.001 mg/kg [3] [%] | inhibition at 0.003 mg/kg [3] [%] | inhibition at 0.01 mg/kg [3] [%] | inhibition at 0.1 mg/kg [3] [%] | also measured
1 | CC(C)(C)NCC(O)COc1ccc(NC(=O)Cc2cccs2)cc1C#N (stereo not drawn) [exemple 7, 1-[2-cyano 4-(2-thiénylacétamido)phénoxy] 3-terbutylamino 2-propanol] | 16 | 36 | 88 | 100 | 0 | -4 | -16 | -36 | +36 (4) battements/min | -27 (5) mmHg | -27 | 24 | 70 | 86 | 100 | 100 | -24 | -70 | -86 | -100 | Pourcentages d'inhibition des effets β2 de l'Isoprénaline [1, 4]: 4%; Fréquence cardiaque Δ (battements/min) T+3 heures m (sm) ([2]; 128 mg.kg^-1 V.O): +29 (4) battements/min; Pression systolique Δ (mmHg) T+3 heures m (sm) ([2]; 128 mg.kg^-1 V.O): -27 (5) mmHg; Fréquence cardiaque Δ (battements/minute) T + 3 heures m ([2]; 128 mg.kg^-1 V.O, mean): +29 battements/minute; Pression systolique Δ (mmHg) T+3 heures m ([2]; 128 mg.kg^-1 V.O, mean): -27 mmHg; Fréquence cardiaque Δ (battements/min) T+5 heures m (sm) ([2]; 128 mg.kg^-1 V.O, T+5 heures): +25 (9) battements/min; Pression systolique Δ (mmHg) T+5 heures m (sm) ([2]; 128 mg.kg^-1 V.O, T+5 heures): -31 (5) mmHg; Pression systolique Δ (mmHg) T+5 heures m [2, 9]: -31 mmHg; Pourcentages d'inhibition des effets β1 de l'Isoprénaline [3, 8]: 100%
2 | CC(C)NCC(O)COc1ccc(NC(=O)Cc2cccs2)cc1C#N (stereo not drawn) [exemple 8, 1-[2-cyano 4-(2-thiénylacétamido)phénoxy] 3-isopropylamino 2-propanol] |  |  | 16 |  | 0 | 0 | 0 | 0 | +31 (11) battements/min | -39 (8) mmHg | -39 | 5 | 12 | 38 | 64 | 86 | -5 | -12 | -38 | -64 | Pourcentages d'inhibition des effets β2 de l'Isoprénaline [1, 11]: 100%; Fréquence cardiaque Δ (battements/min) T+3 heures m (sm) ([2]; 128 mg.kg^-1 V.O): +36 (7) battements/min; Pression systolique Δ (mmHg) T+3 heures m (sm) ([2]; 128 mg.kg^-1 V.O): -31 (9) mmHg; Fréquence cardiaque Δ (battements/minute) T + 3 heures m ([2]; 128 mg.kg^-1 V.O, mean): +36 battements/minute; Pression systolique Δ (mmHg) T+3 heures m ([2]; 128 mg.kg^-1 V.O, mean): -31 mmHg; Fréquence cardiaque Δ (battements/min) T+5 heures m (sm) ([2]; 128 mg.kg^-1 V.O, T+5 heures): +12 (13) battements/min; Pression systolique Δ (mmHg) T+5 heures m (sm) ([2]; 128 mg.kg^-1 V.O, T+5 heures): -25 (5) mmHg; Fréquence cardiaque Δ (battements/minute) T + 5 heures m [2, 9]: +12 battements/minute; Pression systolique Δ (mmHg) T+5 heures m [2, 9]: -25 mmHg; Pourcentages d'inhibition des effets β1 de l'Isoprénaline [3, 11]: 100%
3 | CC(C)(C)NCC(O)COc1ccc(NC(=O)Cc2ccsc2)cc1C#N (stereo not drawn) [exemple 9, 1-[2-cyano 4-(3-thiénylacétamido)phénoxy] 3-terbutylamino 2-propanol] | 8 | 42 | 100 | 100 | 0 | 0 | -8 | -42 |  |  |  | 22 | 74 | 91 | 100 | 100 | -22 | -74 | -91 | -100 | Fréquence cardiaque Δ (battements/min) T+1 heure m (sm) ([2]; 64 mg.kg^-1 V.O): +27 (11) battements/min; Pression systolique Δ (mmHg) T+1 heure m (sm) ([2]; 64 mg.kg^-1 V.O): -16 (4) mmHg; Fréquence cardiaque Δ (battements/min) T+3 heures m (sm) ([2]; 64 mg.kg^-1 V.O): +13 (13) battements/min; Pression systolique Δ (mmHg) T+3 heures m (sm) ([2]; 64 mg.kg^-1 V.O): -25 (8) mmHg; Fréquence cardiaque Δ (battements/min) T+5 heures m (sm) ([2]; 64 mg.kg^-1 V.O, T+5 heures): +13 (13) battements/min; Pression systolique Δ (mmHg) T+5 heures m (sm) ([2]; 64 mg.kg^-1 V.O, T+5 heures): -38 (6) mmHg; Pourcentages d'inhibition des effets β1 de l'Isoprénaline [3, 8]: 100%
4 | CC(C)NCC(O)COc1ccc(NC(=O)Cc2ccsc2)cc1Cl (stereo not drawn) [exemple 46, 1-[2-chloro 4-(3-thiénylacétamido)phénoxy] 3-isopro-pylamino 2-propanol] |  |  |  |  | -5 | -5 | -20 | -19 |  |  |  |  |  |  |  |  | -17 | -44 | -84 | -100 | 
5 | CC(C)(C)NCC(O)COc1ccc(NC(=O)Cc2cccs2)cc1F (stereo not drawn) [exemple 47, 1-[2-fluoro 4-(2-thiénylscétamido)phénoxy] 3-terbutylamino 2-propanol] |  |  |  |  | -24 | -4 | 0 | -12 |  |  |  |  |  |  |  |  | -12 | -33 | -66 | -96 | 
